ChEMBL document CHEMBL4699395, “Synthesis and evaluation of novel 2,4-disubstituted arylthiazoles against T. brucei” (RSC Med Chem, 2020)
pIC50: −log10 of the molar value.

Assays:
Trypanosoma brucei = test: Antitrypanosomal activity against Trypanosoma brucei 427 bloodstream form assessed as concentration required to inhibit 50% parasite growth incubated for 48 hrs by Alamar blue assay; format: functional, organism-based; conditions: Trypanosoma brucei, 427, 48 h
[1] = Selectivity index, ratio of IC50 for rat L6 cells assessed as cell growth inhibition incubated for 6 days by Alamar blue assay to IC50 for Trypanosoma brucei 427 bloodstream form assessed as parasite growth inhibition incubated for 48 hrs by Alamar blue assay; conditions: L6 cells (versus Trypanosoma brucei 427 bloodstream form)

Row | pIC50 (Trypanosoma brucei) | Structure (SMILES) | selectivity ratio at 48 h [1]
1 | 5.00 | N=C(N)Nc1nc(-c2ccc(C34CC5CC(CC(C5)C3)C4)cc2)cs1 | 
2 |  | NCc1nc(-c2ccc(C34CC5CC(CC(C5)C3)C4)cc2)cs1 | < 1
